Laboratory results published in ChEMBL document CHEMBL5356971, “Optimization of the Antibacterial Spectrum and the Developability Profile of the Novel-Class Natural Product Corramycin” (J Med Chem, 2023).
Values after ≈ are worked out from the molar mass of the structure shown. Active and inactive are the calls of the source. The calls are words filed in the database; no cut-off is given here.

Experiments:
[1] = AUClast in Swiss mouse Lung at 3 mg/kg, iv measured upto 24 hrs by LC-MS/MS analysis; format: ADME, organism-based; design: time < 24 hrs, dose 3 mg/kg, route iv
Providencia stuartii = test: Antibacterial activity against multidrug-resistant Providencia stuartii ATCC 49809 assessed as bacterial growth inhibition incubated for 20 to 22 hrs by CLSI based analysis; format: functional; conditions: time 20-22 hrs
Escherichia coli [2] = test: Antibacterial activity against Escherichia coli UT189 infected in Swiss albino mouse model of urinary tract infection assessed as log reduction in bacteremia in bladder at 10 mg/kg, iv pre-infected with bacteria for 24 hrs followed by compound treatment for every 24 hrs for 3 days; format: functional; conditions: time 3 day
[3] = Metabolic stability in mouse kidney assessed as parent compound remaining measured after 1 hrs by UPLC-MS analysis; format: ADME, tissue-based; conditions: read-out: Stability
[4] = AUClast in Swiss mouse Kidney at 3 mg/kg, iv measured upto 24 hrs by LC-MS/MS analysis; format: ADME, organism-based; design: dose 3 mg/kg, time < 24 hrs, route iv
[5] = Metabolic stability in mouse lung assessed as parent compound remaining measured after 4 hrs by UPLC-MS analysis; format: ADME, tissue-based; conditions: mouse lung, read-out: Stability
Escherichia coli [6] = test: Antibacterial activity against wild type Escherichia coli ATCC 35218 assessed as reduction in microbial growth incubated for 20 to 22 hrs by CLSI based analysis; format: functional; conditions: time 20-22 hrs
[7] = Observed clearance Swiss mouse at 3 mg/kg, iv measured upto 24 hrs by LC-MS/MS analysis; format: ADME, organism-based; conditions: in vivo
Klebsiella pneumoniae [8] = test: Antibacterial activity against Klebsiella pneumoniae ATCC 13883 infected in Swiss albino mouse model of neutropenic lung infection at 10 mg/kg, iv pretreated for 1 hr followed by bacterial infection and measured after 5 hr post infection; format: functional, organism-based; conditions: time 6.0 hrs
Escherichia coli [9] = test: Antibacterial activity against Escherichia coli ATCC 25922 infected in Swiss albino mouse thigh infection model at 10 mg/kg, iv measured after 1 hr; format: functional, organism-based
[10] = Volume of distribution at steady state in Swiss mouse at 3 mg/kg, iv measured upto 24 hrs by LC-MS/MS analysis; format: ADME, organism-based; conditions: in vivo, read-out: Vdss
Escherichia coli [11] = test: Antibacterial activity against multidrug-resistant Escherichia coli BAA2469 assessed as bacterial growth inhibition incubated for 20 to 22 hrs by CLSI based analysis; format: functional; conditions: time 20-22 hrs
Escherichia coli [12] = test: Antibacterial activity against Escherichia coli UT189 infected in Swiss albino mouse model of urinary tract infection assessed as log reduction in bacteremia in kidney at 10 mg/kg, iv pre-infected with bacteria for 24 hrs followed by compound treatment for every 24 hrs for 3 days; format: functional; conditions: time 3 day
[13] = Metabolic stability in mouse lung assessed as parent compound remaining measured after 1 hrs by UPLC-MS analysis; format: ADME, tissue-based; conditions: mouse lung, read-out: Stability
[14] = Drug excretion in urine of Swiss mouse at 3 mg/kg, iv measured upto 24 hrs by LC-MS/MS analysis; format: ADME, organism-based; conditions: read-out: Drug excretion
[15] = Ratio of drug concentration in mouse blood to plasma; format: ADME, cell-free
Pseudomonas aeruginosa [16] = test: Antibacterial activity against multidrug-resistant Pseudomonas aeruginosa PAO1 assessed as bacterial growth inhibition incubated for 20 to 22 hrs by CLSI based analysis; format: functional; conditions: time 20-22 hrs
Escherichia coli [17] = test: Antibacterial activity against Escherichia coli UT189 infected in Swiss albino mouse model of urinary tract infection assessed as log reduction in bacteremia in urine at 10 mg/kg, iv pre-infected with bacteria for 24 hrs followed by compound treatment for every 24 hrs for 3 days; format: functional; conditions: time 3 day
Klebsiella pneumoniae [18] = test: Antibacterial activity against multidrug-resistant Klebsiella pneumoniae R1525 assessed as bacterial growth inhibition incubated for 20 to 22 hrs by CLSI based analysis; format: functional; conditions: time 20-22 hrs
Acinetobacter baumannii [19] = test: Antibacterial activity against multidrug-resistant Acinetobacter baumannii R831 assessed as bacterial growth inhibition incubated for 20 to 22 hrs by CLSI based analysis; format: functional; conditions: time 20-22 hrs
[20] = Aqueous solubility of compound at pH 4.5; format: physicochemical; conditions: buffer
Klebsiella pneumoniae [21] = test: Antibacterial activity against […] assessed as bacterial growth inhibition incubated for 20 to 22 hrs by CLSI based analysis; format: functional; conditions: time 20-22 hrs
[22] = Protein binding in mouse plasma assessed as free fraction; format: ADME, cell-free
[23] = Half life in Swiss mouse at 3 mg/kg, iv measured upto 24 hrs by LC-MS/MS analysis; format: ADME, organism-based; conditions: in vivo
[24] = Cmax in Swiss mouse kidney at 3 mg/kg, iv measured upto 24 hrs by LC-MS/MS analysis; format: ADME, organism-based; design: dose 3 mg/kg, time < 24 hrs, route iv
[25] = Aqueous solubility of compound at pH 5.5; format: physicochemical; conditions: buffer
Klebsiella pneumoniae [26] = test: Antibacterial activity against multidrug-resistant Klebsiella pneumoniae B817 assessed as bacterial growth inhibition incubated for 20 to 22 hrs by CLSI based analysis; format: functional; conditions: time 20-22 hrs
Escherichia coli [27] = test: Antibacterial activity against multidrug-resistant Escherichia coli MG1655 assessed as bacterial growth inhibition incubated for 20 to 22 hrs by CLSI based analysis; format: functional; conditions: time 20-22 hrs
Pseudomonas aeruginosa [28] = test: Antibacterial activity against multidrug-resistant Pseudomonas aeruginosa PAO750 assessed as bacterial growth inhibition incubated for 20 to 22 hrs by CLSI based analysis; format: functional; conditions: time 20-22 hrs
Acinetobacter baumannii [29] = test: Antibacterial activity against multidrug-resistant Acinetobacter baumannii R835 assessed as bacterial growth inhibition incubated for 20 to 22 hrs by CLSI based analysis; format: functional; conditions: time 20-22 hrs
Enterobacter cloacae = test: Antibacterial activity against multidrug-resistant Enterobacter cloacae BAA2341 assessed as bacterial growth inhibition incubated for 20 to 22 hrs by CLSI based analysis; format: functional; conditions: time 20-22 hrs
[30] = Ratio of AUC in Lung to plasma in Swiss mouse at 3 mg/kg, iv measured upto 24 hrs by LC-MS/MS analysis; format: ADME, organism-based; conditions: read-out: Ratio AUC
Klebsiella pneumoniae [31] = test: Antibacterial activity against multidrug-resistant Klebsiella pneumoniae NCTC 13443 assessed as bacterial growth inhibition incubated for 20 to 22 hrs by CLSI based analysis; format: functional; conditions: time 20-22 hrs
Staphylococcus aureus = test: Antibacterial activity against multidrug-resistant Staphylococcus aureus ATCC 33592 assessed as bacterial growth inhibition incubated for 20 to 22 hrs by CLSI based analysis; format: functional; conditions: time 20-22 hrs
HepG2 = test: Cytotoxicity against human HepG2 cells assessed as inhibition of cell growth at 30 uM incubated for 40 hrs by celltiterglo assay; format: functional
Escherichia coli [32] = test: Antibacterial activity against multidrug-resistant Escherichia coli UT189 assessed as bacterial growth inhibition incubated for 20 to 22 hrs by CLSI based analysis; format: functional; conditions: time 20-22 hrs
Escherichia coli [33] = test: Antibacterial activity against multidrug-resistant Escherichia coli IR45 assessed as bacterial growth inhibition incubated for 20 to 22 hrs by CLSI based analysis; format: functional; conditions: time 20-22 hrs
THP-1 = test: Cytotoxicity against human THP-1 cells assessed as inhibition of cell growth at 30 uM incubated for 40 hrs by celltiterglo assay; format: functional, cell-based
Klebsiella pneumoniae [34] = test: Antibacterial activity against Klebsiella pneumoniae ATCC 13883 harboring SbmA assessed as reduction in microbial growth incubated for 20 to 22 hrs by CLSI based analysis; format: functional; conditions: time 20-22 hrs
Escherichia coli [35] = test: Antibacterial activity against […] assessed as bacterial growth inhibition incubated for 20 to 22 hrs by CLSI based analysis; format: functional; conditions: time 20-22 hrs
[36] = Ratio of AUC in kidney to plasma in Swiss mouse at 3 mg/kg, iv measured upto 24 hrs by LC-MS/MS analysis; format: ADME, organism-based; conditions: read-out: Ratio AUC
Klebsiella pneumoniae [37] = test: Antibacterial activity against multidrug-resistant Klebsiella pneumoniae G199 assessed as bacterial growth inhibition incubated for 20 to 22 hrs by CLSI based analysis; format: functional; conditions: time 20-22 hrs

CO[C@@H](CNC(=O)[C@H](NC(=O)[C@H](O)[C@H](C)O)[C@H](O)c1cncn1C)[C@H](O)[C@H](O)C(=O)N(C)[C@@H](Cc1ccccc1)C(=O)NCC(=O)N[C@H](C(=O)N[C@@H](CO)C(=O)N[C@H](C(=O)N[C@H](C(=O)N[C@@H](CC(=O)O)C(=O)N1CCC[C@H]1C(=O)NCc1cc(=O)c(O)cn1O)C(C)(C)C)C(C)(C)O)C(C)(C)O
AUC(0-t) at 24 h [1]: 1010 ng·h/mL
MIC (Providencia stuartii): 0.06 µg/mL (≈ 0.0415 µM)
log(activity) (Escherichia coli [2]): 3.1
remaining at 1 h [3]: 103%
AUC(0-t) at 24 h [4]: 7150 ng·h/mL
remaining at 4 h [5]: 80%
MIC (Escherichia coli [6]): 0.01 µg/mL
clearance [7]: 13.5 mL/min/kg
Activity (Klebsiella pneumoniae [8]): Active
Activity (Escherichia coli [9]): Active
Vd [10]: 0.25 L/kg
MIC (Escherichia coli [11]): 0.06 µg/mL (≈ 0.0415 µM)
log(activity) (Escherichia coli [12]): 3.6
remaining at 1 h [13]: 100%
dose excreted at 24 h [14]: 65%
blood plasma ratio [15]: 4.5
MIC (Pseudomonas aeruginosa [16]): > 32 µg/mL
log(activity) (Escherichia coli [17]): 4.7
MIC (Klebsiella pneumoniae [18]): 0.06 µg/mL (≈ 0.0415 µM)
MIC (Acinetobacter baumannii [19]): 2 µg/mL (≈ 1.38 µM)
solubility [20]: 8100 µg/mL (≈ 5600 µM)
MIC (Klebsiella pneumoniae [21]): 0.06 µg/mL (≈ 0.0415 µM)
fraction unbound [22]: 0.51
half-life [23]: 15 min
Cmax [24]: 14200 ng/mL
solubility [25]: 9100 µg/mL (≈ 6290 µM)
MIC (Klebsiella pneumoniae [26]): 0.03 µg/mL (≈ 0.0207 µM)
MIC (Escherichia coli [27]): 0.03 µg/mL (≈ 0.0207 µM)
MIC (Pseudomonas aeruginosa [28]): 32 µg/mL (≈ 22.1 µM)
MIC (Acinetobacter baumannii [29]): 0.06 µg/mL (≈ 0.0415 µM)
MIC (Enterobacter cloacae): 0.25 µg/mL (≈ 0.173 µM)
Kp at 24 h [30]: 0.4
MIC (Klebsiella pneumoniae [31]): 2 µg/mL (≈ 1.38 µM)
MIC (Staphylococcus aureus): 4 µg/mL (≈ 2.76 µM)
Activity (HepG2): inactive
MIC (Escherichia coli [32]): 0.01 µg/mL (≈ 0.00691 µM)
MIC (Escherichia coli [33]): 2 µg/mL (≈ 1.38 µM)
Activity (THP-1): inactive
MIC (Klebsiella pneumoniae [34]): 16 µg/mL
MIC (Escherichia coli [35]): 0.06 µg/mL (≈ 0.0415 µM)
Kp at 24 h [36]: 2.5
MIC (Klebsiella pneumoniae [37]): 0.06 µg/mL (≈ 0.0415 µM)
